Literature values, collected in patent publication US9857359B2, “Methods for determining drug efficacy using cereblon-associated proteins” (CELGENE CORPORATION, priority 2012, dated 2018).

Molecular target: CRBN (Homo sapiens, UniProt Q96SW2)
Details: in vitro; Ito et al., Science 2010; cited from earlier work

CRBN, sequence (Q96SW2 whole entry): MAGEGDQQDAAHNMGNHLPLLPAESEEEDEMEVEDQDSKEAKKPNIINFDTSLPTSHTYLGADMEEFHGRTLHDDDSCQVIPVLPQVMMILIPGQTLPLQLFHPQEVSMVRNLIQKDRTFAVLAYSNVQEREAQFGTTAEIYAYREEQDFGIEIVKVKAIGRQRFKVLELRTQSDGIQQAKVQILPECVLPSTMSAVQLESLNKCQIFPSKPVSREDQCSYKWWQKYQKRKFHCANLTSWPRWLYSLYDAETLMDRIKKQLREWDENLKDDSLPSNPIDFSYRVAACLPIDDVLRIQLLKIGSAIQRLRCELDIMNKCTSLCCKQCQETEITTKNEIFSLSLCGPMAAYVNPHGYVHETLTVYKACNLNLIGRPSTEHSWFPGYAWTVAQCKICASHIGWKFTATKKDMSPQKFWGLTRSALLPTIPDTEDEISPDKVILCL
CRBN, sequence (Q16531 whole entry partner): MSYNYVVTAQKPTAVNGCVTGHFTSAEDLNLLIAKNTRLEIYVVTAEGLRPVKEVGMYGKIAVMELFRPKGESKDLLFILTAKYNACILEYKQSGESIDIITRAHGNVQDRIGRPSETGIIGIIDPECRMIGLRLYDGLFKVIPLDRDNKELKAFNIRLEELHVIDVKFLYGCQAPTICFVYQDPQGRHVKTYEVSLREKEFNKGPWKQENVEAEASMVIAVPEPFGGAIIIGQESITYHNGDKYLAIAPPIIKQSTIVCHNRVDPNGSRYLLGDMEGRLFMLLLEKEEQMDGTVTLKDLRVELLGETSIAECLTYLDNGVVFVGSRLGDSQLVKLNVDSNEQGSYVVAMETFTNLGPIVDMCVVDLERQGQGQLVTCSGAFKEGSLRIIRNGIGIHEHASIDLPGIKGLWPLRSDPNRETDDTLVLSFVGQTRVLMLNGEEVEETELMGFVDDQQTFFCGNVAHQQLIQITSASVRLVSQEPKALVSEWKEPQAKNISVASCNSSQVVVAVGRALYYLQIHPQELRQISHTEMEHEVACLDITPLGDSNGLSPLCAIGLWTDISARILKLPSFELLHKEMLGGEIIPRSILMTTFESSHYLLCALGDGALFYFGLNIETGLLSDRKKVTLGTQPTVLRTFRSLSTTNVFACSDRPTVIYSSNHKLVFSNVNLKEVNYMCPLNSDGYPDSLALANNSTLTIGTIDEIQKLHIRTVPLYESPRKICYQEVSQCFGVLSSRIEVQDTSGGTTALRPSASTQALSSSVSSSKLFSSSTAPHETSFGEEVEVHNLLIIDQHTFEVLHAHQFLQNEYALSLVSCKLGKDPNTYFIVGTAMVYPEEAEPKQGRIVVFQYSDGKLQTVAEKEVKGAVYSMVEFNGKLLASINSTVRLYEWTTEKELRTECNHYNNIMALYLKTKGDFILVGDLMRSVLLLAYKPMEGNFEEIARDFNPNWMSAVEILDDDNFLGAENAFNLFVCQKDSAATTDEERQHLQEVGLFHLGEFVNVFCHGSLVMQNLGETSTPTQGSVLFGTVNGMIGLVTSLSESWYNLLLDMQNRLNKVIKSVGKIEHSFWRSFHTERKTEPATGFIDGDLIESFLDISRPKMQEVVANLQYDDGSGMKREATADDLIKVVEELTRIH
CRBN, sequence (Q13619 whole entry partner): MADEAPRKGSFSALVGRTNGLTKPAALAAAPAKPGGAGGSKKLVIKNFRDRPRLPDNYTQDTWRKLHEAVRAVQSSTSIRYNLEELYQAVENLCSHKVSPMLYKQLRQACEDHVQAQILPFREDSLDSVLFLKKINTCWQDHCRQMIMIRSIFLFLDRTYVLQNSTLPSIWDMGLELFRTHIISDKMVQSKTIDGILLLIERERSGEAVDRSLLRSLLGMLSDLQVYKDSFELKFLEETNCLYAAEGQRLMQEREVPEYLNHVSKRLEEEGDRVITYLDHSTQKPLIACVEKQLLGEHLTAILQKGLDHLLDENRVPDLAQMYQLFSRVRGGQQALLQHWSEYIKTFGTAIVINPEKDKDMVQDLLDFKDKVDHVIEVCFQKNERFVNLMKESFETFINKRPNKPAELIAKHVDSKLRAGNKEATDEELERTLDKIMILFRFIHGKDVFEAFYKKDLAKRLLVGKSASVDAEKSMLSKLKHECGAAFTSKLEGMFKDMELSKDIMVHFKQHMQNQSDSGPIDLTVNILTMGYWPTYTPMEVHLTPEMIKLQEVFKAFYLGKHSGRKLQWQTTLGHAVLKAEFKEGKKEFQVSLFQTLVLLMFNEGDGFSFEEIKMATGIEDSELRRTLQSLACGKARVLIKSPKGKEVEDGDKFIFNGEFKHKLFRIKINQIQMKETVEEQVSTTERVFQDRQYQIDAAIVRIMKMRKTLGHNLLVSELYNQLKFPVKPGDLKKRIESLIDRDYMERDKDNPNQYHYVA
CRBN, sequence (P62877 whole entry partner): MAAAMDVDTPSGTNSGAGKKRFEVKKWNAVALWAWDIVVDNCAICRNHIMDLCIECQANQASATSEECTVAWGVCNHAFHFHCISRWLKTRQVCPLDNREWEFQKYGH

## O=C1CCC(N2C(=O)c3ccccc3C2=O)C(=O)N1 (stereo not shown) [thalidomide]
  Auto-ubiquitination of CRBN: inhibit auto-ubiquitination of CRBN in vitro
